From patent US20240391940A1, “FUSED RING-CONTAINING COMPOUND, APPLICATION THEREOF, AND COMPOSITION CONTAINING SAME” (GenEros Biopharma Ltd., priority 2020, published 2024) come the findings set out here.

In assay [1] the test system is adjuvant arthritis (AIA) rat model. Briefly: Rat AIA (adjuvant arthritis) model. The note with it: for Hind paw volume / body weight / clinical scores: 10 mg/kg daily from day 9, individual animals, 10 mg/kg. In kind it is in vivo, Lewis rats.
Assay [2] relates to Apoe KO mouse atherosclerosis model. Briefly: Atherosclerosis model (Apoe KO mice, high-fat diet): blood lipid tests TCHO, TG, LDL-C, HDL-C. In kind it is in vivo, C57BL/6 Apoe KO mice. Particulars: Apoe KO mice, high-fat diet; GEN1-284s 60 mpk QD oral, 8 weeks. Here is the method:
(§1) Method: Apoe KO mice were tested for basal blood lipid levels and divided into a normal control group and a high-fat group. After 8 weeks of housing, the mice from the high-fat group were divided into 4 groups of about 8: a normal diet group (Chow), a high-fat diet model group (HFD), an Atorvastatin positive group (HFD+atorvastatin 5 mpk, QD), and a GEN1-284s group (284-60 mpk, QD). Oral administration was performed for 8 consecutive weeks, and the effect of the compound on the following indicators in Apoe KO mice was observed: 4 blood lipid tests (TC, TG, HDL-C and LDL-C), aortic plaque En-face staining, and pathological oil red staining of the cardiac outflow tract.
(§2) Mice from the groups except for the normal diet control group (Chow) were fed with high-fat feed every day for […]. From week 9, each group was orally administered solvent or a corresponding test compound, and body weight data were recorded every day for 8 consecutive weeks. After the first 8 weeks' high-fat diet, blood samples were taken and centrifuged to separate serum, and the serum was tested for blood lipid levels (TCHO, TG, LDL-C and HDL-C). The mice were randomly grouped according to the TCHO results and body weight. During the subsequent 8 weeks of administration, blood lipid tests (TCHO, TG, LDL-C and HDL-C) were run once every 4 weeks.
Mice were fasted overnight, and blood (150 μL) was collected via mandibular blood sampling or eye ball removal (for endpoint only) and left at room temperature for 2 h. The blood was centrifuged at 4° C. at 7000 rpm for 10 min, and serum was pipetted, quick-frozen in dry ice and then stored at −80° C. before analysis. The serum was tested for the biochemical indicators TCHO, TG, LDL-C and HDL-C using kits and a microplate reader.

For assay [3] the test system is unchanged. As to the kind of experiment: Atherosclerosis model: aortic plaque En-face staining and plaque area. In kind it is in vivo, C57BL/6 Apoe KO mice. The note with it: Apoe KO mice, high-fat diet; GEN1-284s 60 mpk QD oral. On the procedure:
as §1, §2
At the end of the experiment, the mice were euthanized by CO2 inhalation, and their hearts and aortas (from the aortic arch to the iliac artery) were isolated. The isolated artery was dissected longitudinally from the aortic arch to the iliac artery, fixed in 4% paraformaldehyde for 30 min, synchronized with 60% isopropanol for 10 min, then stained in 60% oil red for 30 min, and then washed with 60% isopropanol 3 times for 5 min each time. Finally, the stained aorta was washed with deionized water and photographed. The proportion of red plaque areas was measured using Image Pro Plus 6.0 (Media Cybernetics, MD, US).

Assay [4] deals with IMQ-induced psoriasis mouse model. As to the kind of experiment: IMQ-induced psoriasis mouse model (PASI scoring). In kind it is in vivo, Balb/c mice. The note with it: IMQ-induced psoriasis mice; GEN1-284s 30 mg/kg PO qD. Here is the method:
Method: This experiment used a total of 19 mice. A natural skin observation control (n=1). 2 cm^2 of hair was shaved off the backs of […] on day 0, the stubble was removed with a mild depilatory cream, and the original skin was photographed. 62.5 mg of IMQ was applied to each of the mice. There was a mock group (n=6), a DEX (3 mg/kg, PO., qD) group (n=6), and a GEN1-284s (30 mg/kg, PO, qD) group (n=6). On the day of modeling, administration was performed in a volume of 100 μL/20 g body weight 4 h after IMQ application. The PASI scoring method was used to score the erythema, swelling and scaling on the skin of the mice. The experiment took a total of 6 days. The first day was set to day 0. IMQ application and administration were not performed on day 5. The mice were sacrificed with carbon dioxide at the end of the experiment.
The test animals were anesthetized with isoflurane. 2 cm^2 of hair was shaved off the backs of the mice, and the stubble was removed with a depilatory cream. IMQ application was performed for a total of 5 days, from day 0 to day 4. Scoring and IMQ application were performed every morning. Administration was performed in the afternoon
Desquamation (D): means epidermal cells flake off. The severity scores of skin lesions were as follows: • 0=none; this sign cannot be confirmed by careful observation • 1=mild; this sign can be confirmed but careful observation is required • 2=moderate; this sign is more visible and can be confirmed immediately • 3=severe; this sign is marked. • 4=very severe; this sign is very marked.
Induration I: 0—skin lesions are at the same level as normal skin; • 1—skin lesions are at slightly higher levels than normal skin surface; • 2—lesions moderately stick out and have round or slope-shaped borders; • 3—skin lesions are thick and markedly stick out; • 4—skin lesions are very thick and very markedly stick out.
Erythema E: • 0—no visible erythema; • 1—light red; • 2—red; • 3—dark red; • 4—the red is very dark

“And” between values parts separate entries of the source, which are not always exact repeats. Equal values may be shown once.

For `O=C(Cc1ccc2ncccc2c1)N1CCC(n2c(=O)[nH]c3cccc(C(F)(F)F)c32)CC1` [GEN1-117, 1-(1-(2-(Quinolin-6-yl)acetyl)piperidin-4-yl)-7-(trifluoromethyl)-1H-benzo[d]imidazol-2(3H)-one], the “Maximum arthritis index score compared to the control rats” value in assay [1] is “can effectively relieve the AIA rat arthritis disease model”. Also, the Body weight change entry in assay [1] (AIA rats, GEN1-117 intervention group) is “gained significant weight”. The “Increase in hind paw volume and clinical score” value in assay [1] (AIA rats, daily intraperitoneal injection) was “dose-dependently inhibited”. Also, the Hind paw volume in assay [1] (AIA rats, day 9) is 1.23 and 1.41 and 1.46 and 1.38 (2×) and 1.18 and 1.15 and 1.31 and 1.35 and 1.12 and 1.68 and 1.27; in assay [1] (AIA rats, day 11), 1.19 and 1.3 (2×) and 1.65 and 0.97 and 1.17 and 1.18 (2×) and 1.13 and 1.08 and 1.92 and 1.23; in assay [1] (AIA rats, day 13), 1.25 (2×) and 1.93 and 2.35 and 1.08 and 1.26 (2×) and 0.84 and 1.38 and 1.03 and 2.32 and 1.28; in assay [1] (AIA rats, day 15), 1.27 (2×) and 2.03 and 2.2 and 1.04 and 1.1 and 1.38 and 1.08 and 1.11 and 1.26 and 2.93 and 1.66; in assay [1] (AIA rats, day 17, in mL (unit assumed)), 1.14 and 2.03 and 1.62 and 0.88 and 1.12 and 1.28 and 1.06 and 1.41 and 1.09 and 1.03 and 2.61 and 1.88; in assay [1] (AIA rats, day 19, in mL (unit assumed)) it was 1.42 and 3.18 and 2.26 and 1.39 and 1.25 and 1.37 and 1.26 and 1.65 and 1.28 and 1.38 and 2.43 and 2.78. In addition, the Hind paw volume was 1 and 3.15 and 1.95 and 1.08 (2×) and 0.86 and 1.09 and 1.33 and 1.04 and 1.14 and 2.65 and 2.14 in assay [1] (AIA rats, day 21); 0.99 and 3.36 and 2.21 and 1.25 and 0.88 and 0.93 and 0.96 and 1.26 and 1.08 (2×) and 2.87 and 1.89 in assay [1] (AIA rats, day 23). For the same compound, the “body weight” value in assay [1] (AIA rats, day 9) was 166 g and 154 g (2×) and 153 g (2×) and 158 g and 145 g and 169 g (2×) and 175 g and 168 g and 164 g; in assay [1] (AIA rats, day 10) it was 156 g and 151 g and 155 g and 152 g (2×) and 143 g and 135 g and 159 g and 165 g and 158 g (3×); in assay [1] (AIA rats, day 11) it was 156 g and 150 g and 153 g and 152 g and 140 g and 132 g and 155 g (2×) and 164 g and 158 g and 157 g and 146 g; in assay [1] (AIA rats, day 12), 158 g and 153 g and 154 g and 155 g and 143 g and 137 g and 159 g and 164 g and 160 g and 156 g and 162 g and 148 g; in assay [1] (AIA rats, day 13) it was 157 g and 158 g and 155 g and 159 g and 145 g and 143 g and 161 g (2×) and 167 g and 165 g and 169 g and 149 g; in assay [1] (AIA rats, day 14) it was 164 g (2×) and 160 g and 155 g and 166 g and 151 g and 150 g (2×) and 170 g (2×) and 173 g and 172 g. Moreover, the “body weight” value in assay [1] (AIA rats, day 15) was 162 g and 159 g and 151 g (2×) and 169 g and 154 g and 176 g and 174 g (2×) and 170 g and 175 g and 149 g; in assay [1] (AIA rats, day 16) it was 165 g and 164 g and 158 g and 135 g and 156 g and 155 g and 180 g and 177 g and 179 g and 175 g and 176 g and 147 g; in assay [1] (AIA rats, day 17), 169 g and 170 g and 152 g and 181 g. The clinical scores in assay [1] (AIA rats, day 9) is 0 (9×) and 0.17 and 1 (2×); in assay [1] (AIA rats, day 11), 0 (8×) and 0.75 and 2.5 and 1.5 and 0.5; in assay [1] (AIA rats, day 13) it was 0 (7×) and 1 (2×) and 3 and 0.17 and 1.67; in assay [1] (AIA rats, day 15), 0 (4×) and 2 (2×) and 5.5 and 0.17 (4×) and 3.5; in assay [1] (AIA rats, day 17), 0 (8×) and 1.83 (2×) and 5 and 3.5; in assay [1] (AIA rats, day 19) it was 0 (7×) and 2.5 and 4 and 0.5 and 2 and 4.25. Besides, the clinical scores in assay [1] (AIA rats, day 21) was 0 (7×) and 2.67 and 5.33 and 0.5 and 2 and 4.17; in assay [1] (AIA rats, day 23), 0 (7×) and 3 and 4 (2×) and 0.5 and 2.5. In addition, the “Clinical scores compared to the control rats” value in assay [1] (days 13-23) is reported as “significant reductions in clinical scores”. Moreover, in assay [1] (days 17-23), the “Hind paw volume compared to the control rats” value is reported as “significantly decreased”.

In the case of `O=C(Cc1ccc2ncccc2c1)N1CCC(n2c(=O)n(COP(=O)([O-])[O-])c3cccc(C(F)(F)F)c32)CC1.[Na+].[Na+]` [GEN1-284 salt, (2-Oxo-3-(1-(2-(quinolin-6-yl)acetyl)piperidin-4-yl)-4-(trifluoromethyl)-2,3-dihydro-1H-benzo[d]imidazol-1-yl)methyl disodium phosphate], the “Effect on dyslipidemia (TCHO, TG, HDL-C and LDL-C)” value in assay [2] is on record as “partially ameliorate dyslipidemia”. For the same compound, the “Formation of atherosclerotic plaques” value in assay [3] is listed as “significantly reduced the formation of atherosclerotic plaques”. Also, in assay [4], the “Swelling of the skin” value is “partially ameliorate the psoriatic swelling”.
